Reference: patent US12351570B2 (MERCK PATENT GMBH, priority 2018, dated 2025)

The compounds below were run on MDA-MB-231 cells (assay: Extracellular lactate production inhibition after 4 h, MDA-MB-231). Details: Homo sapiens, MDA-MB-231.

**Q.** Which IC50 does the source give for `O=C(O)c1ccc(C#Cc2ccccc2NS(=O)(=O)c2ccc3c(c2)Cc2ccccc2-3)cn1` [Compound 92, 5-{2-[2-(9H-fluorene-2-sulfonamido)phenyl]ethynyl}pyridine-2-carboxylic acid] here?
**A.** 10 to 100 nM

**Q.** With `O=C(O)c1ccc(C#Cc2ccccc2NS(=O)(=O)N2CCc3ccccc3C2)cn1` [Compound 113, 5-(2-{2-[(1,2,3,4-tetrahydroisoquinoline-2-sulfonyl)amino]phenyl}ethynyl)pyridine-2-carboxylic acid] as the compound, how does the IC50 read?
**A.** 1000 to 100000 nM

**Q.** For `CCOc1ccnc2c(S(=O)(=O)Nc3ccccc3C#Cc3ccc(C(=O)O)nc3)cccc12` [Compound 348, 5-{2-[2-(4-ethoxyquinoline-8-sulfonamido)phenyl]ethynyl}pyridine-2-carboxylic acid], which IC50 is on record?
**A.** 10 to 100 nM

**Q.** With `Cc1ccc2cccnc2c1S(=O)(=O)Nc1cc(Br)ccc1C#Cc1ccc(C(=O)O)nc1` [Compound 186, 5-{2-[4-bromo-2-(7-methylquinoline-8-sulfonamido)phenyl]ethynyl}pyridine-2-carboxylic acid] as the compound, how does the IC50 read?
**A.** 100 to 1000 nM

**Q.** `O=C(O)c1ccc(C#Cc2ccccc2NS(=O)(=O)N2CCc3ccccc32)cn1` [Compound 126, 5-(2-{2-[(2,3-dihydro-1H-indole-1-sulfonyl)amino]phenyl}ethynyl)pyridine-2-carboxylic acid] was tested. Which IC50 did it give?
**A.** 100 to 1000 nM

**Q.** How did the IC50 turn out when `CC(=O)N(Cc1ccc2ccccc2c1)c1ccccc1C#Cc1ccc(C(=O)O)nc1` [Compound 116, 5-[2-(2-{N-[(naphthalen-2-yl)methyl]acetamido}phenyl)ethynyl]-pyridine-2-carboxylic acid] was run?
**A.** 100 to 1000 nM

**Q.** For `COc1ccc(S(=O)(=O)Nc2ccc(Cl)cc2C#Cc2cnc(C(=O)O)c3ccccc23)c(C)c1C` [Compound 400, 4-[5-Chloro-2-(4-methoxy-2,3-dimethyl-benzenesulfonylamino)-phenylethynyl]-isoquinoline-1-carboxylic acid], which IC50 is on record?
**A.** 10 to 100 nM

**Q.** Which IC50 does the source give for `COc1cc(C(=O)O)ncc1C#Cc1cc(Cl)ccc1NS(=O)(=O)c1c(C)ccc2cccnc12` [Compound 361, 5-{2-[5-chloro-2-(7-methylquinoline-8-sulfonamido)phenyl]ethynyl}-4-methoxypyridine-2-carboxylic acid] here?
**A.** 1 to 10 nM

**Q.** With `C=C(C)c1cc(C(=O)O)ncc1C#Cc1ccccc1NS(=O)(=O)c1ccc(OC)c2cccnc12` [Compound 207] as the compound, how does the IC50 read?
**A.** 10 to 100 nM

**Q.** How did the IC50 turn out when `COc1ccc(S(=O)(=O)Nc2ccccc2C#Cc2ccc(C(=O)O)cc2)cc1OC` [Compound 263, 4-[2-(3,4-Dimethoxy-benzenesulfonyl-amino)-phenylethynyl]-benzoic acid] was run?
**A.** 1000 to 100000 nM

**Q.** `COc1ccc2cccc(S(=O)(=O)Nc3ccccc3C#Cc3ccc(C(=O)O)nc3)c2n1` [Compound 117, 5-{2-[2-(2-methoxyquinoline-8-sulfonamido)phenyl]ethynyl}pyridine-2-carboxylic acid] was tested. Which IC50 did it give?
**A.** 100 to 1000 nM

**Q.** For `COc1cccc(S(=O)(=O)Nc2ccccc2C#Cc2ccc(C(=O)O)nc2)c1` [Compound 12, 5-{2-[2-(3-methoxybenzenesulfonamido)phenyl]-ethynyl}pyridine-2-carboxylic acid], which IC50 is on record?
**A.** 1000 to 100000 nM

**Q.** For `Cc1c(S(=O)(=O)Nc2ccccc2C#Cc2ccc(C(=O)O)nc2)ccc2ccccc12` [Compound 97, 5-{2-[2-(1-methylnaphthalene-2-sulfonamido)phenyl]ethynyl}pyridine-2-carboxylic acid], which IC50 is on record?
**A.** 100 to 1000 nM

**Q.** With `O=C(O)c1ccc(C#Cc2ccccc2NS(=O)(=O)c2ccc3c(c2)OCCO3)cc1` [Compound 250, 4-[2-(2,3-Dihydro-benzo[1,4]dioxine-6-sulfonylamino)-phenylethynyl]-benzoic acid] as the compound, how does the IC50 read?
**A.** 1000 to 100000 nM

**Q.** Which IC50 does the source give for `CS(=O)(=Nc1ccccc1C#Cc1ccc(C(=O)O)nc1)c1cccc2cccnc12` (stereo not shown) [Compound 429, 5-[2-(2-{[methyl(oxo)(quinolin-8-yl)-λ6-sulfanylidene]amino}phenyl)ethynyl] pyridine-2-carboxylic acid] here?
**A.** 1000 to 100000 nM

**Q.** With `COc1cc(C#Cc2ccccc2NS(=O)(=O)c2cccc3ccccc23)ccc1C(=O)O` [Compound 62, 2-methoxy-4-{2-[2-(naphthalene-1-sulfonamido)phenyl]ethynyl}benzoic acid] as the compound, how does the IC50 read?
**A.** 100 to 1000 nM
